Some test systems named below: HT29 colon; SF-268 CNS; OVCAR-8 ovarian; SNB-19 CNS; TK-10 renal; SK-MEL-5 melanoma; NCI-H460 lung; K-562 leukemia; HS 578T breast; EKVX NSCLC.
Common to all, as to test: NCI-60 cell line screen, 48 h

Several values for one entry are separate records, joined by “and”; a condition that tells them apart may be missing. Equal entries are not always repeated.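 Results reflect a 48-hour exposure of cells in 96-well plates to compound at five concentrations. The concentration for 50% growth inhibition is given as GI50. The concentration for full growth arrest is given as TGI.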

Regarding `CC12CCCC3(CC(=O)C(C)(C)C3C(=O)C1)C2` (stereo not given), the TGI with HT29 colon, with SF-268 CNS, with OVCAR-8 ovarian, in the test with SNB-19 CNS, in the test on TK-10 renal and in the test on SK-MEL-5 melanoma was over 100 µM in each case. The TGI with NCI-H460 lung, in the test with K-562 leukemia, in the test with HS 578T breast and in the test with EKVX NSCLC was over 100 µM each time.
Regarding `O=C1NCN(c2ccccc2)C12CCN(CCCN1CCN(CCOC(c3ccc(F)cc3)c3ccc(F)cc3)CC1)CC2`, the TGI in the test with HT29 colon came out at 3.97 µM; in the test on SF-268 CNS it was 3.79 µM; in the test on OVCAR-8 ovarian, 4.82 µM; in the test on SNB-19 CNS, 6.57 µM; in the test on TK-10 renal, 3.2 µM; with SK-MEL-5 melanoma it was 3.09 µM. Also, the TGI in the test on NCI-H460 lung came out at 4.32 µM; with K-562 leukemia, 10.5 µM; in the test with HS 578T breast, 4.67 µM; in the test with EKVX NSCLC it was 9.81 µM.
For `CC(=O)OC1C(COC(=O)c2ccccc2)OC(Nc2ncc(-c3ccc(Br)cc3)s2)C(OC(=O)c2ccccc2)C1OC(=O)c1ccccc1` (stereo not given), the TGI with HT29 colon, in the test on SF-268 CNS, in the test on OVCAR-8 ovarian, in the test with SNB-19 CNS, with TK-10 renal and in the test with SK-MEL-5 melanoma was over 100 µM in each case. Moreover, the TGI with NCI-H460 lung, in the test on K-562 leukemia, with HS 578T breast and in the test on EKVX NSCLC was over 100 µM in each case.
As to `N#Cc1c(-c2ccccc2)cc(-c2ccc(Cl)cc2)[nH]c1=S`, the TGI in the test on HT29 colon is over 100 µM; in the test on SF-268 CNS it was over 100 µM; with OVCAR-8 ovarian, over 100 µM; in the test with SNB-19 CNS, over 100 µM; with TK-10 renal, over 100 µM; with SK-MEL-5 melanoma, 39 µM. Further, the TGI in the test with NCI-H460 lung was over 100 µM; with K-562 leukemia it was over 100 µM; in the test on HS 578T breast it was over 100 µM; with EKVX NSCLC, 70.4 µM.
Consider `Cn1c2ccccc2c(=O)c2c(O)cc3c(c21)C=CC1(CCCCC1)O3`, for which the TGI in the test with HT29 colon, in the test on SF-268 CNS, in the test with OVCAR-8 ovarian, in the test with SNB-19 CNS, in the test with TK-10 renal and in the test on SK-MEL-5 melanoma was over 10 µM each time. In addition, the TGI in the test with NCI-H460 lung, with K-562 leukemia, in the test with HS 578T breast and in the test on EKVX NSCLC was over 10 µM each time.
In the case of `Cc1c2c(OCC3CCCCO3)nn(C)c(=O)c2c(C)n1-c1ccccc1` (stereo not given), the TGI in the test with HT29 colon was 91.4 µM; with SF-268 CNS, 30.7 µM; in the test with OVCAR-8 ovarian, 42.2 µM; in the test with SNB-19 CNS, 46.8 µM; in the test with TK-10 renal, 45.4 µM; in the test with SK-MEL-5 melanoma it was 29.1 µM. For the same molecule, the TGI with NCI-H460 lung was 30.9 µM; in the test with K-562 leukemia, over 100 µM; in the test with HS 578T breast, 46.6 µM; in the test on EKVX NSCLC it was 33.2 µM.
In the case of `O=C(c1ccncc1)C1C(=O)c2ccccc2C1C1(O)c2ccccc2CC1C(O)c1ccncc1` (stereo not given), the TGI with HT29 colon, with SF-268 CNS, in the test on OVCAR-8 ovarian, with SNB-19 CNS, in the test on TK-10 renal and in the test on SK-MEL-5 melanoma was over 100 µM throughout. The TGI with NCI-H460 lung, in the test with K-562 leukemia, in the test on HS 578T breast and with EKVX NSCLC was over 100 µM each time.
On to `COc1ccc(C2c3cc4c(cc3OC(N3CCOCC3)C2C)OCO4)c(OC)c1OC` (stereo not given), for which the TGI was 52.2 µM with HT29 colon; 79.8 µM in the test with SF-268 CNS; over 100 µM in the test on OVCAR-8 ovarian; 39.1 µM in the test on SNB-19 CNS; 70.5 µM in the test with TK-10 renal; 23.1 µM in the test on SK-MEL-5 melanoma. Moreover, the TGI in the test on NCI-H460 lung was 51.3 µM; in the test with K-562 leukemia it was 21 µM; in the test with HS 578T breast, 19.2 µM; in the test with EKVX NSCLC it was over 100 µM.
As for `COc1cc2ccc1OCc1cccc(n1)COc1ccc(cc1OC)C=Nc1ccc(cc1)N=C2`, the TGI with HT29 colon, in the test with SF-268 CNS, in the test with OVCAR-8 ovarian, in the test with SNB-19 CNS, in the test on TK-10 renal and in the test with SK-MEL-5 melanoma was over 100 µM throughout. Also, the TGI with NCI-H460 lung, with K-562 leukemia, with HS 578T breast and in the test on EKVX NSCLC was over 100 µM in each case.
Take `COc1ccc(-c2cc(-c3ccccc3)[nH]c(=S)c2C#N)cc1`: the TGI in the test with HT29 colon was over 100 µM; in the test with SF-268 CNS, over 100 µM; in the test on OVCAR-8 ovarian, 90.5 µM; in the test with SNB-19 CNS, over 100 µM; in the test on TK-10 renal it was over 100 µM; with SK-MEL-5 melanoma it was 34.3 µM. For the same molecule, the TGI in the test with NCI-H460 lung is 81.7 µM; in the test on K-562 leukemia, over 100 µM; in the test with HS 578T breast, over 100 µM; with EKVX NSCLC, over 100 µM.
As to `C=C(CN(C)C)C(=O)c1ccccc1[N+](=O)[O-]`, the GI50 in the test with HT29 colon is 3.31 µM; in the test on SF-268 CNS, 20.7 µM; in the test on OVCAR-8 ovarian, 6.55 µM; with SNB-19 CNS it was 23.3 µM; with TK-10 renal it was 12.9 µM; in the test on SK-MEL-5 melanoma, 16.9 µM. Also, the GI50 in the test with NCI-H460 lung was 19.6 µM; in the test with K-562 leukemia, 3.38 µM; in the test on EKVX NSCLC, 23 µM. For the same molecule, the TGI is 39.1 µM and 16.1 µM with HT29 colon; 51.4 µM and 58.3 µM with SF-268 CNS; 40.9 µM and 32 µM in the test on OVCAR-8 ovarian; > 68.2 µM and 47.7 µM with SNB-19 CNS; 34.3 µM and 26.3 µM with TK-10 renal; 33.4 µM and 39.6 µM in the test on SK-MEL-5 melanoma. Besides, the TGI is 59.3 µM and 45.1 µM in the test on NCI-H460 lung; 27.7 µM and 12.9 µM in the test with K-562 leukemia; 77.1 µM in the test with HS 578T breast; > 59.3 µM and 49 µM in the test with EKVX NSCLC.
Turning to `Cc1ccc(/C=C2\Cc3c(C)cc(C)cc3C2=O)c(C(=O)O)c1`, the TGI was over 100 µM with HT29 colon; over 100 µM in the test on SF-268 CNS; over 100 µM in the test on OVCAR-8 ovarian; over 100 µM in the test on SNB-19 CNS; over 100 µM in the test on TK-10 renal; 85.2 µM with SK-MEL-5 melanoma. Besides, the TGI with NCI-H460 lung, in the test with K-562 leukemia, in the test on HS 578T breast and with EKVX NSCLC was over 100 µM throughout.
For `C1=C\SS/C=C\SS/1`, the TGI is 35.6 µM in the test on HT29 colon; over 100 µM in the test with SF-268 CNS; 49.8 µM in the test on OVCAR-8 ovarian; over 100 µM in the test on SNB-19 CNS; over 100 µM in the test with TK-10 renal; over 100 µM in the test on SK-MEL-5 melanoma. Moreover, the TGI is 80 µM in the test on NCI-H460 lung, 85.2 µM in the test on K-562 leukemia, over 100 µM in the test with HS 578T breast and over 100 µM with EKVX NSCLC.
Take `C#CCN(Cc1ccc2nc(OC)c(OC)nc2c1)c1cc(OC)c(OC)c(OC)c1`: the TGI in the test with HT29 colon was 72 µM; in the test on SF-268 CNS, over 94.1 µM; in the test with OVCAR-8 ovarian, 64.3 µM; with SNB-19 CNS, over 80.9 µM; in the test on TK-10 renal, over 100 µM; with SK-MEL-5 melanoma, 23.1 µM. Moreover, the TGI in the test with NCI-H460 lung is over 87.2 µM; with K-562 leukemia, over 100 µM; in the test on HS 578T breast, 79.1 µM; in the test with EKVX NSCLC, over 86 µM.
For `COc1cc2c(cc1Cc1c(F)cccc1Cl)nc(-c1c(F)cccc1Cl)n2Cc1c(F)cccc1Cl`, the TGI in the test on HT29 colon, in the test on SF-268 CNS, with OVCAR-8 ovarian, with SNB-19 CNS, in the test with TK-10 renal and with SK-MEL-5 melanoma was over 100 µM each time. Besides, the TGI was over 100 µM in the test with NCI-H460 lung, over 100 µM in the test with K-562 leukemia, over 100 µM in the test on HS 578T breast and 69.7 µM with EKVX NSCLC.
Consider `O=C(Nc1noc(-c2ccccc2)n1)c1ccccc1CNc1noc(-c2ccccc2)n1`, for which the TGI with HT29 colon, with SF-268 CNS, with OVCAR-8 ovarian, in the test with SNB-19 CNS, in the test on TK-10 renal and in the test with SK-MEL-5 melanoma was over 100 µM throughout. In addition, the TGI in the test on NCI-H460 lung, in the test on K-562 leukemia, in the test with HS 578T breast and in the test on EKVX NSCLC was over 100 µM throughout.
Turning to `CC(=O)c1cnc2oc3ccc(O)cc3c2c1-c1ccccc1`, the TGI with HT29 colon, in the test on SF-268 CNS, in the test on OVCAR-8 ovarian, in the test with SNB-19 CNS, in the test with TK-10 renal and in the test with SK-MEL-5 melanoma was over 100 µM in each case. Further, the TGI in the test with NCI-H460 lung, with K-562 leukemia, in the test with HS 578T breast and with EKVX NSCLC was over 100 µM in each case. The GI50 in the test with SF-268 CNS is 27.7 µM.

These data come from PubChem BioAssay (NCI).
